Data: PMC5653977 (EMBO Molecular Medicine, 2017)
Structures can show the parent of a compound that is named as a salt. Where two headings read alike, the source gives them in different places.

Test system: NRG1-ERBB4 signaling
Experiment: Nrg1-ERBB4-PIK3R1 split TEV co-culture compound screen of the NIH Clinical Collection
Type: cell-based, human
Source text: For our HTS‐compatible split TEV assay approach, human full‐length ERBB4‐Cyt1 was fused to the NTEV fragment, a TEV protease cleavage site (tevS) and the artificial co‐transcriptional activator Gal4‐VP16 (ERBB4‐NTEV‐tevS‐GV); human PIK3R1 was fused to the CTEV fragment (PIK3R1‐CTEV) (Fig 1A). Upon ERBB4 activation, PIK3R1 is recruited to the receptor resulting in a reconstituted protease activity that cleaves off GV. In turn, released GV translocates to the nucleus and binds to upstream activating sequences (UAS) to activate the transcription of a firefly luciferase reporter gene (Fig 1A). A constitutively expressed Renilla luciferase driven under the control of the human thymidine kinase (TK) promoter was used as control to address off‐target effects related to toxicity.
For small molecule screening, the NIH‐NCC Clinical Collection library (sets NCC‐003 and NCC‐201) was used containing 727 small molecules that are FDA‐approved and have a history in clinical applications (www.nihclinicalcollection.com). A Hamilton Labstar robot connected to 37 and 4°C incubators for cell incubation and compound storage and application (Cytomat automated incubator, ThermoScientific) and to a luciferase reader (Berthold Technologies) was used to automatically perform the screening. […] Each batch was screened three times.
For one 96‐well plate, 4 × 10^6 PC12 cells were harvested and diluted in 5 ml assay medium (phenol red‐free DMEM (low glucose, Life Technologies), 10% FCS, 5% HS, no antibiotics). The split TEV assay plasmids (2 μg pcDNA3_ERBB4‐NTEV‐tevS‐GV‐2xHA, 2 μg pTag4C_PIK3R1‐CTEV‐2xHA, 2 μg p5xUAS_firefly luciferase, 2 μg pTK_Renilla luciferase, and 0.5 μg pECFP‐C1 for examining transfection efficiency) were diluted in 2.5 ml Opti‐MEM (Life Technologies) and vortexed. In parallel, 20 μl of the transfection reagent Lipofectamine 2000 was diluted in 2.5 ml Opti‐MEM and vortexed.
For plating of one 96‐well plate, 10 ml suspension, containing the 4 × 10^6 in solution‐transfected cells, was placed in the bubble paddle reservoir of the Hamilton Cellstar robot. 100 μl was seeded per 96‐well using the 96‐tip pipetting head. The homogeneity of the cell suspension was guaranteed over time by mild stirring using the paddling device inside the reservoir. For five plates each, 50 ml of additional cell suspension was used to allow for losses of inaccessible volume.
The cells were allowed to express the plasmids for 24 h before compounds were added. Proper expression and transfection efficiency were verified by ECFP expression on a clear control plate. The compounds were applied in a final concentration of 10 μM using DMSO as diluent. […] Thirty minutes later, 10,000 Nrg1‐expressing PC12 cells in 100 μl assay medium were seeded on top. 24 h after addition of the compounds, the cells were lysed using 40 μl Passive Lysis buffer (Promega) and subjected to a Dual Luciferase Assay (Promega) according to the manufacturer's instructions. The data were analyzed in R Bioconductor using the package cellHTS2 (http://www.bioconductor.org/packages/devel/bioc/html/cellHTS2.html), assessed using the z‐score, and visualized using the program Mondrian (http://stats.math.uni-augsburg.de/mondrian/).

[1] = compounds at 10 μM, 24 h, PC12 split TEV assay cells co-cultured with Nrg1-expressing PC12 cells, analysed with cellHTS2
[2] = compound screen of the NIH Clinical Collection, sheet raw data NCC-003, compounds ranked by Z-score
[3] = NIH Clinical Collection NCC-003 raw data, compounds ranked by Z-score, 'flagged' given instead of a Z-score

| Compound | Z-SCORE [1] | Z-SCORE [2] | also measured |
| --- | --- | --- | --- |
| C#C[C@]1(O)CC[C@H]2[C@@H]3CCC4=CC(=O)CC[C@@H]4[C@H]3CC[C@@]21C [19-Norethindrone, reference compound] | 0.63 | – | – |
| Cc1occc(=O)c1O [118-71-8] | – | 0.13 | – |
| CC=CC(=O)N(CC)c1ccccc1C [483-63-6] | – | -0.8 | – |
| CN1C(=O)CC[C@H]1c1cccnc1 [(-)-Cotinine] | – | -0.57 | – |
| C[C@H]1O[C@H](O[C@H]2[C@H](O)[C@@H](O)[C@@H](O[C@H]3[C@H](O)[C@@H](O)C(O)O[C@@H]3CO)O[C@@H]2CO)[C@H](O)[C@@H](O)[C@@H]1N[C@H]1C=C(CO)[C@@H](O)[C@H](O)[C@H]1O (stereo partly shown) [ACARBOSE] | – | -0.8 | – |
| CCCC(=O)Nc1ccc(OCC(O)CNC(C)C)c(C(C)=O)c1 (stereo not shown) [ACEBUTOLOL HYDROCHLORIDE, reference compound] | 0.4 | – | – |
| CC(=O)Nc1ccc(CC(=O)O)cc1 [ACTARIT] | – | -0.12 | – |
| COc1cc2nc(N(C)CCCNC(=O)C3CCCO3)nc(N)c2cc1OC (stereo not shown) [ALFUZOSIN] | – | 0.03 | – |
| Cc1[nH]cnc1CN1CCc2c(c3ccccc3n2C)C1=O [ALOSETRON HCl] | – | 0.99 | – |
| CCCCC/C=C\C/C=C\C/C=C\C/C=C\CCCC(=O)Nc1ccc(O)cc1 [AM 404] | – | -1.01 | – |
| Cc1c(C(=O)NN2CCCCC2)nn(-c2ccc(Cl)cc2Cl)c1-c1ccc(I)cc1 [AM-251] | – | -0.56 | – |
| CC(=O)OCC(=O)[C@@]12OC3(CCCC3)O[C@@H]1C[C@H]1[C@@H]3CCC4=CC(=O)C=C[C@]4(C)[C@@]3(F)[C@@H](O)C[C@@]12C [AMCINONIDE, reference compound] | -1.01 | – | – |
| CC(NC(C)(C)C)C(=O)c1cccc(Cl)c1.Cl (stereo not shown) [AMFEBUTAMONE HCl] | – | 0 | – |
| CCCCc1oc2ccccc2c1C(=O)c1cc(I)c(OCCN(CC)CC)c(I)c1 [AMIODARONE HYDROCHLORIDE] | – | -0.19 | – |
| Clc1ccc2c(c1)C(N1CCNCC1)=Nc1ccccc1O2 [AMOXAPINE, reference compound] | 0.4 | – | – |
| CC1(C)S[C@@H]2[C@H](NC(=O)[C@H](N)c3ccc(O)cc3)C(=O)N2[C@H]1C(=O)O [AMOXICILLIN CRYSTALLINE, reference compound] | -1.06 | – | – |
| CCOC(=O)OC(C)OC1=C(C(=O)Nc2ccccn2)N(C)S(=O)(=O)c2ccccc21 (stereo not shown) [AMPIROXICAM] | – | 0.43 | – |
| O=C1CN2Cc3c(ccc(Cl)c3Cl)N=C2N1 [ANAGRELIDE HCl] | – | -0.48 | – |
| CC(C)(C#N)c1cc(Cn2cncn2)cc(C(C)(C)C#N)c1 [ANASTROZOLE] | – | -0.16 | – |

| Compound | Z-SCORE [1] | Z-SCORE [2] | also measured |
| --- | --- | --- | --- |
| CC1CNc2c(cccc2S(=O)(=O)N[C@@H](CCCNC(=N)N)C(=O)N2CC[C@@H](C)C[C@@H]2C(=O)O)C1 (stereo partly shown) [ARGATROBAN] | – | -0.29 | – |
| O=C1CCc2ccc(OCCCCN3CCN(c4cccc(Cl)c4Cl)CC3)cc2N1 [ARIPIPRAZOLE] | – | – | Z-SCORE [3]: -1.84 |
| C[C@H]1[C@H](OC(=O)CCC(=O)O)O[C@@H]2O[C@@]3(C)CC[C@H]4[C@H](C)CC[C@@H]1[C@@]24OO3 [ARTESUNATE] | – | – | Z-SCORE [3]: flagged |
| CC(C)NCC(O)COc1ccc(CC(N)=O)cc1 (stereo not shown) [ATENOLOL, reference compound] | 0.6 | – | – |
| CNCC[C@@H](Oc1ccccc1C)c1ccccc1 [ATOMOXETINE HCl] | – | 0.83 | – |
| COc1ccc(CC2c3cc(OC)c(OC)cc3CC[N+]2(C)CCC(=O)OCCCCCOC(=O)CC[N+]2(C)CCc3cc(OC)c(OC)cc3C2Cc2ccc(OC)c(OC)c2)cc1OC (stereo not shown) [ATRACURIUM BESYLATE] | – | -0.66 | – |
| CN1CCCC(n2nc(Cc3ccc(Cl)cc3)c3ccccc3c2=O)CC1 (stereo not shown) [AZELASTINE HCl] | – | -0.68 | – |
| CC(=O)Nc1nnc(S(N)(=O)=O)s1 [Acetazolamide, reference compound] | 0.2 | – | – |
| COc1cc(C)c(/C=C/C(C)=C/C=C/C(C)=C/C(=O)O)c(C)c1C [Acitretin, reference compound] | -0.6 | – | – |
| Nc1nc2c(ncn2COCCO)c(=O)[nH]1 [Acyclovir, reference compound] | 0.99 | – | – |
| Nc1ncnc2c1ncn2[C@@H]1O[C@H](CO)[C@@H](O)[C@@H]1O [Adenine 9-beta, reference compound] | 1.63 | – | – |
| c1ccc2c(CC3=NCCN3)cccc2c1 [Albalon, reference compound] | -0.27 | – | – |
| CCCSc1ccc2nc(NC(=O)OC)[nH]c2c1 [Albendazole, reference compound] | – | – | Z-SCORE: -5.48 |
| CC(C)(C(=O)O)c1ccc(C(O)CCCN2CCC(C(O)(c3ccccc3)c3ccccc3)CC2)cc1 (stereo not shown) [Allegra, reference compound] | -0.84 | – | – |
| Oc1ncnc2[nH]ncc12 [Allopurinol, reference compound] | 0.21 | – | – |
| Cc1nnc2n1-c1ccc(Cl)cc1C(c1ccccc1)=NC2 [Alprazolam] | – | – | Z-SCORE [3]: -2.27 |
| O=C(c1ccc(F)cc1)C1CCN(CCn2c(=S)[nH]c3ccccc3c2=O)CC1 [Altanserin] | – | 0.71 | – |
| CN(C)c1nc(N(C)C)nc(N(C)C)n1 [Altretamine, reference compound] | -0.4 | – | – |
| CCC1(c2ccc(N)cc2)CCC(=O)NC1=O (stereo not shown) [Aminoglutethimide, reference compound] | -0.62 | – | – |

| Compound | Z-SCORE [1] | Z-SCORE [2] | also measured |
| --- | --- | --- | --- |
| NCC(=O)CCC(=O)O [Aminolevulinic Acid, reference compound] | -0.04 | – | – |
| CCN1CCCC1CNC(=O)c1cc(S(=O)(=O)CC)c(N)cc1OC (stereo not shown) [Amisulpride] | – | 0.41 | – |
| CC(C)c1ccc2oc3nc(N)c(C(=O)O)cc3c(=O)c2c1 [Amlexanox, reference compound] | 4.7 | 4.7 | – |
| CC1(C)S[C@@H]2[C@H](NC(=O)[C@H](N)c3ccccc3)C(=O)N2[C@H]1C(=O)O [Ampicillin Sodium, reference compound] | -1.31 | – | – |
| CN(C)CCCN1c2ccccc2CCc2ccc(Cl)cc21 [Anafranil, reference compound] | 0.12 | – | – |
| CN(C)CCC=C1c2ccccc2CCc2ccccc21.Cl [Annoyltin, reference compound] | 0.33 | – | – |
| OC(CCN1CCCCC1)(c1ccccc1)C1CCCCC1 (stereo not shown) [Artane, reference compound] | -0.35 | – | – |
| CN1C(=O)COc2c(C(=O)NC3CN4CCC3CC4)cc(Cl)cc21 (stereo not shown) [Azasetron] | – | 0.46 | – |
| Cn1cnc([N+](=O)[O-])c1Sc1ncnc2nc[nH]c12 [Azathioprine, reference compound] | 0.16 | – | – |
| CC[C@H]1OC(=O)[C@H](C)[C@@H](O[C@H]2C[C@@](C)(OC)[C@@H](O)[C@H](C)O2)[C@H](C)[C@@H](O[C@@H]2O[C@H](C)C[C@H](N(C)C)[C@H]2O)[C@](C)(O)C[C@@H](C)CN(C)[C@H](C)[C@@H](O)[C@]1(C)O [Azithromycin, reference compound] | 0.06 | – | – |
| O=C(O)CCNC(=O)c1ccc(/N=N/c2ccc(O)c(C(=O)O)c2)cc1 [BALSALAZIDE] | – | 0.84 | – |
| CCC(=O)OCC(=O)[C@@]1(OC(=O)CC)[C@@H](C)C[C@H]2[C@@H]3CCC4=CC(=O)C=C[C@]4(C)[C@@]3(Cl)[C@@H](O)C[C@@]21C [BECLOMETHASONE DIPROPIONATE, reference compound] | 0.81 | – | – |
| CCN(CC)CCOC(=O)C(O)(c1ccccc1)c1ccccc1 [BENACTYZINE HYDROCHLORIDE] | – | 2.48 | – |
| CCOC(=O)[C@H](CCc1ccccc1)N[C@H]1CCc2ccccc2N(CC(=O)O)C1=O [BENAZEPRIL HCl] | – | 0.26 | – |
| CC(COc1ccccc1Cc1ccccc1)N1CCCCC1.O=P(O)(O)O (stereo not shown) [BENPROPERINE PHOSPHATE] | – | -0.08 | – |
| CC(C)C[C@H](NC(=O)[C@@H](O)[C@H](N)Cc1ccccc1)C(=O)O [BESTATIN] | – | – | Z-SCORE [3]: -1.11 |
| C[C@]12CC[C@@H]3c4ccc(O)cc4CC[C@H]3[C@@H]1CC[C@@H]2O [BETA-ESTRADIOL] | – | 0.81 | – |
| CC(O)(CS(=O)(=O)c1ccc(F)cc1)C(=O)Nc1ccc(C#N)c(C(F)(F)F)c1 (stereo not shown) [BICALUTAMIDE] | – | 0 | – |
| CC(C)NCC(O)COc1ccc(COCCOC(C)C)cc1 (stereo not shown) [BISOPROLOL FUMARATE] | – | 0.59 | – |
